The source of these data is the NIST ThermoML archive (doi:10.1016/j.jct.2015.10.016).

Structures are written as SMILES. ± gives the expanded uncertainty stated by the source.

Data set [1] in a line: Molar enthalpy of transition or fusion. Particulars: Crystal; DSC.
The conditions of data set [2]: Crystal; DTA.

Consider `O=C(NC[C@H]1CN(c2ccc(N3CCOCC3=O)cc2)C(=O)O1)c1ccc(Cl)s1` [Rivaroxaban], for which the “Molar enthalpy of transition or fusion” value in data set [1] came to 11.2 ± 0.502 kcal/mol. Also, in data set [2], the Normal melting temperature was found to be 235.40 ± 1.1 °C.
